For assay [1], the target named is T1, Melanocortin receptor 3 (Homo sapiens, UniProt P41968). In words: Displacement of europium labeled NDP-alpha-MSH from human MC3R expressed in HEK293 cells. Format: cell-based.
Assay [2] deals with T1, Melanocortin receptor 3. In words: Agonist activity at human MC3R transfected in HEK293 cells. In kind it is functional, cell-based.
For assay [3], the target named is T2, Melanocortin receptor 4 (Homo sapiens, UniProt P32245). In words: Displacement of europium labeled NDP-alpha-MSH from human MC4R expressed in HEK293 cells. In kind it is cell-based.
Assay [4] deals with T3, Melanocyte-stimulating hormone receptor (Homo sapiens, UniProt Q01726). In words: Displacement of europium labeled NDP-alpha-MSH from human MC1R expressed in HEK293 cells. Format: cell-based.
The target in assay [5] is T3, Melanocyte-stimulating hormone receptor. In words: Agonist activity at human MC1R transfected in HEK293 cells. Format: functional, cell-based.
Assay [6] deals with T2, Melanocortin receptor 4. In words: Agonist activity at human MC4R transfected in HEK293 cells. In kind it is functional, cell-based.

Non-standard residues stand in square brackets, D forms with d. Residues, ends and D or L forms follow the SMILES beside them. 2Nal = N[C@@H](Cc1ccc2ccccc2c1)C(=O)O

T2 sequence (P32245 whole entry): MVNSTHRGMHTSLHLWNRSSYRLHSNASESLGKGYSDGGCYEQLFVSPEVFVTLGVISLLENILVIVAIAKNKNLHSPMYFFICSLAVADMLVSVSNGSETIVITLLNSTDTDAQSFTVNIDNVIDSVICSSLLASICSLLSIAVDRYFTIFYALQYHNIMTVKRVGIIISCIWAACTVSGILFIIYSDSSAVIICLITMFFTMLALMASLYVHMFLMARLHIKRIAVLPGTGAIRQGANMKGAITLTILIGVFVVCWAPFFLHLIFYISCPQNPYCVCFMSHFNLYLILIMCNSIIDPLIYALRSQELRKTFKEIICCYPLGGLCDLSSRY
T3 sequence (Q01726 whole entry): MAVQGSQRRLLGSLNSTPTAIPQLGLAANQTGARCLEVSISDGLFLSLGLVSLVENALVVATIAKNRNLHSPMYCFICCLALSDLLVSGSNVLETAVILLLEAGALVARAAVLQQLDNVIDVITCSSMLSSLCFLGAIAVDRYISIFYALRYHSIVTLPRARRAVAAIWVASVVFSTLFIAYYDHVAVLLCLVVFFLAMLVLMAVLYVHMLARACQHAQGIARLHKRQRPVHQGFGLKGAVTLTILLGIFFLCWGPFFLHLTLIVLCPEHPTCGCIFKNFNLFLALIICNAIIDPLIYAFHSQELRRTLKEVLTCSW
T1 sequence (P41968 whole entry): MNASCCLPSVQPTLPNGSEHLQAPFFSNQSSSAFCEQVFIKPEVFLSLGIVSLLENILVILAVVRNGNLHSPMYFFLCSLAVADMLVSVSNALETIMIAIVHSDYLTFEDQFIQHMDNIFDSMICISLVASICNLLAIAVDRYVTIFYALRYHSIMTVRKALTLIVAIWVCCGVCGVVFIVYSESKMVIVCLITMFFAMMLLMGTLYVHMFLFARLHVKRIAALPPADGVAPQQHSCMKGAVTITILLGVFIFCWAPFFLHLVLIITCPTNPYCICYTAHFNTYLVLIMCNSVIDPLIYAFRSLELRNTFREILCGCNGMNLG

In general, Ki refers to a dissociation constant, usually derived from enzyme kinetics or from competition with a known ligand. A higher Ki goes with a looser hold on the target. For orientation: EC50 means the concentration giving half of the maximal effect. Low values mean higher potency in that assay, high ones lower potency in that assay. On to `CC(=O)N[C@@H](Cc1c[nH]cn1)C(=O)N[C@H](Cc1ccccc1)C(=O)N1C[C@@H](OCc2ccc3ccccc3c2)C[C@@H]1CCCN=C(N)N`, for which the results for the Ki (on Melanocortin receptor 3 [1]; at Melanocortin receptor 4 [3]; in assay [4]) were 117 nM, 57 nM and 1.3 nM, respectively. The concentration for a half-maximal effect (EC50) stood at 1.3 nM on Melanocortin receptor 3 [2], 0.045 nM in assay [5] and 2.3 nM on Melanocortin receptor 4 [6].

`CC(=O)N[C@@H](Cc1ccccc1)C(=O)N[C@H](Cc1ccccc1)C(=O)N1C[C@H](OCc2ccc3ccccc3c2)C[C@@H]1CCCN=C(N)N`: the Ki was 154 nM at Melanocortin receptor 3 [1], 59 nM at Melanocortin receptor 4 [3] and 182 nM in assay [4]. Besides, the EC50 at Melanocortin receptor 3 [2] was determined as 313 nM; in assay [5] it was 201 nM; on Melanocortin receptor 4 [6], 20 nM.

With `CC(=O)N[C@@H](CCC(N)=O)C(=O)N[C@H](Cc1ccccc1)C(=O)N1C[C@H](OCc2ccc3ccccc3c2)C[C@@H]1CCCN=C(N)N`, the Ki at Melanocortin receptor 3 [1] was determined as 50 nM; at Melanocortin receptor 4 [3], 18 nM; in assay [4], 35 nM. For the same compound, the 50% effective concentration (EC50) is 42 nM on Melanocortin receptor 3 [2], 45 nM in assay [5] and 4.3 nM at Melanocortin receptor 4 [6].

Regarding `NC(=O)C[C@H](N)C(=O)N[C@H](Cc1ccccc1)C(=O)N1C[C@H](OCc2ccc3ccccc3c2)C[C@H]1CCCN=C(N)N`, the results for the Ki (at Melanocortin receptor 3 [1]; at Melanocortin receptor 4 [3]; in assay [4]) were 15400 nM, 6670 nM and 443 nM, respectively. Besides, the results for the concentration giving a half-maximal response (EC50) (in assay [5]; on Melanocortin receptor 4 [6]) were 402 nM and 20000 nM, respectively.

Consider `NC(=O)C[C@H](N)C(=O)N[C@H](Cc1ccccc1)C(=O)N1C[C@@H](OCc2ccc3ccccc3c2)C[C@H]1CCCN=C(N)N`, for which the inhibition constant (Ki) was 29100 nM on Melanocortin receptor 3 [1], 8160 nM at Melanocortin receptor 4 [3] and 1570 nM in assay [4]. For the same compound, the concentration for a half-maximal effect (EC50) at Melanocortin receptor 3 [2] is 2990 nM; in assay [5], 521 nM; at Melanocortin receptor 4 [6], 1620 nM.

Consider `CC(=O)N[C@@H](Cc1c[nH]cn1)C(=O)N[C@@H](Cc1ccccc1)C(=O)N[C@@H](CCCN=C(N)N)C(=O)N[C@@H](Cc1c[nH]c2ccccc12)C(N)=O`, for which the Ki on Melanocortin receptor 3 [1] was found to be 2860 nM; in assay [4], 35 nM. Also, the EC50 on Melanocortin receptor 3 [2] stood at 248 nM; in assay [5], 14 nM.

On to `CNC(=O)[C@H](Cc1ccc2ccccc2c1)NC(=O)[C@H](CCCN=C(N)N)NC(=O)[C@@H](Cc1ccccc1)NC(=O)[C@H](Cc1ccc(O)cc1)NC(C)=O` (Ac-Y[dF]R[2Nal]-NHMe), for which the EC50 in assay [5] stood at 20000 nM.

Consider `NC(N)=NCCC[C@H]1C[C@@H](OCc2ccc3ccccc3c2)CN1C(=O)[C@H](N)Cc1ccccc1`, for which the inhibitory constant (Ki) at Melanocortin receptor 3 [1] is 1240 nM; on Melanocortin receptor 4 [3], 305 nM; in assay [4] it was 381 nM. The EC50 on Melanocortin receptor 3 [2] is 871 nM; in assay [5], 151 nM; at Melanocortin receptor 4 [6], 291 nM.

Turning to `N=C(N)NCCC[C@H]1C[C@H](OCc2ccc3ccccc3c2)CN1C(=O)[C@@H](Cc1ccccc1)NC(=O)[C@@H]1Cc2ccccc2CN1`, the Ki on Melanocortin receptor 3 [1] was determined as 529 nM; on Melanocortin receptor 4 [3], 97 nM; in assay [4], 562 nM. Moreover, the EC50 at Melanocortin receptor 3 [2] was determined as 214 nM; in assay [5], 72 nM; at Melanocortin receptor 4 [6], 36 nM.

Regarding `NC(N)=NCCNC(=O)[C@H]1C[C@@H](OCc2ccc3ccccc3c2)CN1C(=O)[C@@H](Cc1ccccc1)NC(=O)[C@@H](N)Cc1c[nH]cn1`, the inhibition constant Ki stood at 703 nM at Melanocortin receptor 3 [1], 760 nM at Melanocortin receptor 4 [3] and 15 nM in assay [4]. Further, the concentration for a half-maximal effect (EC50) came out at 266 nM on Melanocortin receptor 3 [2], 24 nM in assay [5] and 249 nM on Melanocortin receptor 4 [6].

`N=C(N)NCCC[C@@H]1C[C@H](OCc2ccc3ccccc3c2)CN1C(=O)[C@@H](Cc1ccccc1)NC(=O)[C@@H]1Cc2ccccc2CN1`: the values for the Ki (at Melanocortin receptor 3 [1]; on Melanocortin receptor 4 [3]; in assay [4]) were 4180 nM, 670 nM and 1400 nM, respectively. Besides, the figures for the EC50 (on Melanocortin receptor 3 [2]; in assay [5]; at Melanocortin receptor 4 [6]) were 3150 nM, 1360 nM and 457 nM, respectively.

For `NC(N)=NCCC[C@H]1C[C@@H](OCc2ccc3ccccc3c2)CN1C(=O)[C@@H](Cc1ccccc1)NC(=O)[C@@H]1CCCCN1`, the values for the Ki (on Melanocortin receptor 3 [1]; at Melanocortin receptor 4 [3]; in assay [4]) were 156 nM, 31 nM and 40 nM, respectively. The values for the EC50 (at Melanocortin receptor 3 [2]; in assay [5]; on Melanocortin receptor 4 [6]) were 260 nM, 30 nM and 14 nM, respectively.

`N=C(N)NCCC[C@@H]1C[C@@H](OCc2ccc3ccccc3c2)CN1C(=O)[C@@H](Cc1ccccc1)NC(=O)[C@@H]1Cc2ccccc2CN1`: the values for the inhibition constant Ki (at Melanocortin receptor 3 [1]; at Melanocortin receptor 4 [3]; in assay [4]) were 8100 nM, 4390 nM and 19 nM, respectively. The EC50 is 1470 nM on Melanocortin receptor 3 [2], 19 nM in assay [5] and 1090 nM on Melanocortin receptor 4 [6].

Regarding `CC(=O)N[C@@H](Cc1cnc[nH]1)C(=O)N[C@H](Cc1ccccc1)C(=O)N1C[C@H](OCc2ccc3ccccc3c2)C[C@@H]1CCCN=C(N)N`, the inhibition constant Ki was 26 nM at Melanocortin receptor 3 [1], 17 nM on Melanocortin receptor 4 [3] and 0.65 nM in assay [4]. For the same compound, the EC50 at Melanocortin receptor 3 [2] is 15 nM; in assay [5], 0.3 nM; on Melanocortin receptor 4 [6], 3.7 nM.

`CC(=O)N[C@@H](Cc1ccc(O)cc1)C(=O)N[C@H](Cc1ccccc1)C(=O)N1C[C@H](OCc2ccc3ccccc3c2)C[C@H]1CCCN=C(N)N`: the inhibition constant Ki at Melanocortin receptor 3 [1] turned out to be 19200 nM; on Melanocortin receptor 4 [3] it was 2350 nM; in assay [4], 1690 nM. The figures for the EC50 (in assay [5]; at Melanocortin receptor 4 [6]) were 1750 nM and 20000 nM, respectively.

For the compound `N=C(N)NCCC[C@H]1C[C@H](OCc2ccc3ccccc3c2)CN1C(=O)[C@@H](Cc1ccccc1)NC(=O)[C@@H]1CCCCN1`, the values for the Ki (on Melanocortin receptor 3 [1]; on Melanocortin receptor 4 [3]; in assay [4]) were 1260 nM, 121 nM and 125 nM, respectively. The concentration giving a half-maximal response (EC50) was determined as 286 nM at Melanocortin receptor 3 [2], 28 nM in assay [5] and 54 nM on Melanocortin receptor 4 [6].

Consider `NC(N)=NCCNC(=O)[C@H]1C[C@@H](OCc2ccc3ccccc3c2)CN1C(=O)[C@@H](Cc1ccccc1)NC(=O)C1CCNCC1`, for which the inhibition constant (Ki) was 3180 nM on Melanocortin receptor 3 [1], 1020 nM at Melanocortin receptor 4 [3] and 121 nM in assay [4]. Further, the EC50 came out at 2470 nM on Melanocortin receptor 3 [2], 104 nM in assay [5] and 501 nM at Melanocortin receptor 4 [6].

`NC(N)=NCCC[C@H]1C[C@@H](OCc2ccc3ccccc3c2)CN1C(=O)[C@@H](Cc1ccccc1)NC(=O)[C@@H]1CCCN1`: the Ki at Melanocortin receptor 3 [1] came out at 219 nM; at Melanocortin receptor 4 [3], 46 nM; in assay [4] it was 55 nM. The EC50 was 593 nM on Melanocortin receptor 3 [2], 52 nM in assay [5] and 17 nM on Melanocortin receptor 4 [6].

For the compound `CNC(=O)[C@H](Cc1ccc2ccccc2c1)NC(=O)[C@H](CCCN=C(N)N)NC(=O)[C@H](N)Cc1ccccc1`, the Ki came out at 22600 nM at Melanocortin receptor 3 [1], 2010 nM on Melanocortin receptor 4 [3] and 4380 nM in assay [4]. Besides, the EC50 in assay [5] came to 20000 nM; at Melanocortin receptor 4 [6] it was 809 nM.

As to `N=C(N)NCCC[C@@H]1C[C@H](OCc2ccc3ccccc3c2)CN1C(=O)[C@@H](Cc1ccccc1)NC(=O)[C@@H]1CCCCN1`, the values for the inhibitory constant (Ki) (on Melanocortin receptor 3 [1]; on Melanocortin receptor 4 [3]; in assay [4]) were 7160 nM, 2260 nM and 1790 nM, respectively. The EC50 in assay [5] turned out to be 1070 nM; at Melanocortin receptor 4 [6] it was 515 nM.

Consider `N=C(N)NCCC[C@@H]1C[C@@H](OCc2ccc3ccccc3c2)CN1C(=O)[C@@H](Cc1ccccc1)NC(=O)[C@@H]1CCCCN1`, for which the Ki at Melanocortin receptor 3 [1] was found to be 7440 nM; at Melanocortin receptor 4 [3], 1710 nM; in assay [4], 340 nM. Also, the concentration giving a half-maximal response (EC50) turned out to be 449 nM in assay [5] and 10800 nM at Melanocortin receptor 4 [6].

The values above are taken from ChEMBL document CHEMBL1138948, “Design, synthesis, and evaluation of proline and pyrrolidine based melanocortin receptor agonists. A conformationally restricted dipeptide mimic approach” (J Med Chem, 2006).
